Assay results reported in the NIST ThermoML archive (doi:10.1007/s10765-011-1087-7).
± gives the expanded uncertainty stated by the source.

Columns and labels:
[1] = 101 kPa, Liquid; for viscosity: Capillary tube (Ostwald / Ubbelohde) method; for speed of sound: Pulse-echo method
[2] = refractive index (Na D-line) (dimensionless); conditions: 101.33 kPa, Liquid
[3] = xn = mol fraction of the nth substance listed; conditions: 101 kPa, Liquid, x1 = 1; for speed of sound: Pulse-echo method
[4] = refractive index (Na D-line) (dimensionless); xn = mol fraction of the nth substance listed; conditions: 101 kPa, Liquid, x1 = 1

Clc1cccc(Cl)c1 [1,3-dichlorobenzene]
Conditions	mass density, [1] [kg/m3]	refractive index, [2]	speed of sound, [1] [m/s]	viscosity, [1] [mPa·s]
298.15 K	1283.45 ± 0.84	1.544 ± 0.0012	1255 ± 1.3	1.014 ± 0.009
303.15 K	1277.79 ± 0.82	1.541 ± 0.0012	1238.4 ± 1.3	0.946 ± 0.008
308.15 K	1272.1 ± 0.81	1.538 ± 0.0012	1221.9 ± 1.3	0.891 ± 0.008

Clc1cccc(Cl)c1 [1,3-dichlorobenzene] + CCCCCCC(C)O
Conditions	mass density, [3] [kg/m3]	refractive index, [4]	speed of sound, [3] [m/s]	viscosity, [3] [mPa·s]
298.15 K	1283.45 ± 0.84	1.544 ± 0.0012	1255 ± 1.3	1.014 ± 0.075
303.15 K	1277.79 ± 0.82	1.541 ± 0.0012	1238.4 ± 1.3	0.946 ± 0.071
308.15 K	1272.1 ± 0.81	1.538 ± 0.0012	1221.9 ± 1.3	0.891 ± 0.067

Clc1ccccc1Cl [1,2-dichlorobenzene] + CCCCCCC(C)O
Conditions	mass density, [3] [kg/m3]	refractive index, [4]	speed of sound, [3] [m/s]	viscosity, [3] [mPa·s]
298.15 K	1300.3 ± 0.87	1.546 ± 0.0012	1281.6 ± 1.3	1.314 ± 0.047
303.15 K	1294.72 ± 0.86	1.544 ± 0.0012	1265.2 ± 1.3	1.235 ± 0.045
308.15 K	1289.13 ± 0.85	1.541 ± 0.0012	1245.9 ± 1.3	1.144 ± 0.042

Clc1ccccc1Cl [1,2-dichlorobenzene]
Conditions	mass density, [1] [kg/m3]	refractive index, [2]	speed of sound, [1] [m/s]	viscosity, [1] [mPa·s]
298.15 K	1300.3 ± 0.87	1.546 ± 0.0012	1281.6 ± 1.3	1.314 ± 0.01
303.15 K	1294.72 ± 0.86	1.544 ± 0.0012	1265.2 ± 1.3	1.235 ± 0.01
308.15 K	1289.13 ± 0.85	1.541 ± 0.0012	1245.9 ± 1.3	1.144 ± 0.009

CCCCCCC(C)O (configuration not stated) [2-octanol]
Conditions	mass density, [1] [kg/m3]	refractive index, [2]	speed of sound, [1] [m/s]	viscosity, [1] [mPa·s]
298.15 K	816.39 ± 0.57	1.4226 ± 0.0012	1307 ± 1	6.566 ± 0.072
303.15 K	812.58 ± 0.58	1.4206 ± 0.0012	1289 ± 1	5.178 ± 0.061
308.15 K	808.74 ± 0.59	1.4185 ± 0.0012	1271 ± 1	4.162 ± 0.051

Clc1ccc(Cl)c(Cl)c1 [1,2,4-trichlorobenzene]
Conditions	mass density, [1] [kg/m3]	refractive index, [2]	speed of sound, [1] [m/s]	viscosity, [1] [mPa·s]
298.15 K	1448.41 ± 1.1	1.548 ± 0.0012	1272 ± 1.2	1.926 ± 0.012
303.15 K	1442.43 ± 1.1	1.546 ± 0.0012	1256.4 ± 1.2	1.76 ± 0.012
308.15 K	1436.45 ± 1.1	1.543 ± 0.0012	1240.9 ± 1.2	1.617 ± 0.011
